Reference: patent USRE39420E1, “1,2-Diphenylpyrrole derivatives, their preparation and their therapeutic uses” (Sankyo Company, Limited, priority 1996, dated 2006)

Columns and labels:
[1] = test system: Carrageenan-induced Paw Edema in rats; experiment: Carrageenan-induced paw edema test; type: in vivo, Wistar-Imamichi rats; conditions: Rattus norvegicus, oral, 3 hours after carrageenan, read-out: Inhibition Rate (%)
Description: The same test compounds were subjected to the test as those in the Randall-Selitto test of Experiment 3. Wistar-Imamichi rats (males, 6 week old, body weights: 110-120 g) were used in this test.
The method of Winter, et al. [Proc. Soc. Exp. Biol. Med. 111, 544-547, (1962)] was slightly modified to perform the test [Sankyo Annual Research Report 39, 77-111, (1989)]. The rats were fasted for 16 hours prior to use. Inflammatory edema was induced by the subcutaneous injection of 0.05 ml of a 1% carrageenan (Viscarin 402) solution into the right hind paw of the animal. The test compounds were administered orally 30 minutes before injection of carrageenan. The volume of the right hind foot was measured with a Plethysmometer (Trade mark) (Ugo-Basile Co.) just before administration of the test compound and 3 hours after injection of carrageenan to determine the edema intensity [(right foot volume after 3 hours/right foot volume before injection)-1].

[2] = molecular target: T1, Human Recombinant Cyclooxygenase-2 (Homo sapiens, UniProt P35354); experiment: Inhibitory activity on human recombinant cyclooxygenase-2 microsomes from COS cells (PGE2 ELISA); type: biochemical; conditions: for IC50: human recombinant COX-2 microsomes, PGE2 formation, read-out: Inhibitory Effect on COX-2 [IC50 (μM)]; for Selectivity (COX-1/COX-2): ratio of IC50 COX-1/COX-2
T1 construct: made in house; host or cells: COS cells (transient expression; microsomes prepared after 66 hours)
T1 sequence (P35354 18-604): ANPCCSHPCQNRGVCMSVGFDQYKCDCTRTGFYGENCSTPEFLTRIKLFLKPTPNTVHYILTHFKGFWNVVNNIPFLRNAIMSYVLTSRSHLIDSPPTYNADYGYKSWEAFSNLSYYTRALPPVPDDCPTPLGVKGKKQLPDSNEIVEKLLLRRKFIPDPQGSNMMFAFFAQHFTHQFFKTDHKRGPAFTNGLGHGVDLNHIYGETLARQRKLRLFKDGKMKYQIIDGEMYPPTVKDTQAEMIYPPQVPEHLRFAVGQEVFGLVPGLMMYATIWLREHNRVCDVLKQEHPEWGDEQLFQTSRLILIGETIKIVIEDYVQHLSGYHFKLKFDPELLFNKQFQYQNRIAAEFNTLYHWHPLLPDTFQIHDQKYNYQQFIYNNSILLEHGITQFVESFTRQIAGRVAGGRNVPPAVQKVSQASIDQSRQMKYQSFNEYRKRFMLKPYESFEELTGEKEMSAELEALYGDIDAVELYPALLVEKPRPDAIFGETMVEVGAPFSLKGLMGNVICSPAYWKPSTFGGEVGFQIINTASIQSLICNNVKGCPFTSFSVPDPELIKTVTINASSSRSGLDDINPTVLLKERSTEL
Description: In order to prepare cyclooxygenase-1 (COX-1) microsomes, ram seminal vesicles were homogenised by a blender. To prepare cyclooxygenase-2 (COX-2) microsomes, an expression vector which contains the human COX-2 gene was introduced into COS cells. The cells were homogenised by sonication after 66 hours cultivation. Microsomes were then prepared in accordance with conventional methods.
Enzyme activity was assayed as follows.
(§1) The assay mixture contained 10 μl of COX-1 or COX-2 microsomes (5 to 15 μg), 2 μl of sample dissolved in dimethyl sulfoxide, 50 μl of 200 mM Tris (pH 7.6), 10 μl of 20 mM reduced glutathione, 10 μl of 10 mM epinephrine, and 15.5 μl of distilled water. After preincubation at 37° C. for 15 minutes, 2.5 μl of 10 μM arachidonic acid (dissolved in ethanol) were then added to the mixture (final volume of 100 μl) and allowed to react at 37° C. for 30 minutes. The final dimethyl sulfoxide and ethanol concentrations were 2% and 2.5%, respectively. To the reaction mixture were then added 15 μl of ice-cooled 0.2M HCl to stop the reaction, and the mixture was cooled at 4° C. for 5 minutes. 15 μl of a 0.2M aqueous solution of sodium hydroxide were then added to the reaction mixture to neutralise the pH. The amount of PGE2, in the reaction mixture was measured using a commercially available ELISA kit (Cayman). IC50 was calculated from the regression line determined by the inhibition rates of PGE2 formation and the concentrations of the compound.

[3] = molecular target: T2, Cyclooxygenase-1 from Ram Seminal Vesicle Microsomes (RSVM) (Ovis aries, UniProt P05979); experiment: Inhibitory activity on cyclooxygenase-1 from ram seminal vesicle microsomes (PGE2 ELISA); type: biochemical; conditions: PGE2 formation, read-out: Inhibitory Effect on COX-1[IC50(μM)]
T2 construct: ram seminal vesicles were homogenised by a blender; from tissue; host or cells: ram seminal vesicles (microsomes)
T2 sequence (P05979 25-600): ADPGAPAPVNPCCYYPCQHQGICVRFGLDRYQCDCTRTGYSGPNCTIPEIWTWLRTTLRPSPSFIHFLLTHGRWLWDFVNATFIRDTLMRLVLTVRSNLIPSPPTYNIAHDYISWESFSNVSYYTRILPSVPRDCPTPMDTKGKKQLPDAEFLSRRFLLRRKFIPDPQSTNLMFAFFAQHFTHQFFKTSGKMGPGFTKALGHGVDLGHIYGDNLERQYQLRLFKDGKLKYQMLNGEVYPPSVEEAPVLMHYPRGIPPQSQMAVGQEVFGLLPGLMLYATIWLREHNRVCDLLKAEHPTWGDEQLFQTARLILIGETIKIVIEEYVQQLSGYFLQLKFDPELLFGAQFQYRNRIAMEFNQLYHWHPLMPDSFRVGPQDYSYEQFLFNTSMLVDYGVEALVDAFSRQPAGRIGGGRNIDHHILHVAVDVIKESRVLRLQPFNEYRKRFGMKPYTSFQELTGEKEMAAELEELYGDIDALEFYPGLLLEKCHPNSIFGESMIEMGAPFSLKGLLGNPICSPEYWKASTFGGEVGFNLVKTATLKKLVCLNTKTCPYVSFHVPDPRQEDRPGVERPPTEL
Description: as §1, with “In order to prepare cyclooxygenase-1 (COX-1) microsomes, ram seminal vesicles were homogenised by a blender. To prepare cyclooxygenase-2 (COX-2) microsomes, an expression vector which contains the human COX-2 gene was introduced into COS cells. The cells were homogenised by sonication after 66 hours cultivation. Microsomes were then prepared in accordance with conventional methods. Enzyme activity was assayed as follows. The assay” for “The assay”

gastric mucosa = experiment: Irritative effect on gastric mucosa; type: in vivo, Wistar rats; conditions: oral; dose producing 50% incidence of gastric ulcers, 3.5 hours after dosing
Description: Experiments were performed according to the method described by Jahn and Adrian [Arzneim.-Forsch. 19, 36, (1969)]. Male Wistar rats weighing approximately 120 g were fasted for 16 hours before the experiment. The drugs were administered orally to rats as described in Experiment 3. Three and the half hours after dosing, the animals were killed under ether-anesthesia and the stomachs were placed into 1% of formalin. The stomach was opened by cutting along the greater curvature and the number and length of lesions were counted under a microscope (6.3×10). The ulcerogenicity in each animal was assessed according to Hitchens et. al. [Pharmacologist 9, 242, (1967)]. Incidence was determined as the rate of rats with 4 or more ulcers of more than 0.5 mm length, and UD50's (doses producing 50% incidence) were calculated from the incidence and the dose by probit (=probability unit) method.

[4] = test system: yeast-inflamed pain in rats; experiment: Analgesic effect on yeast-inflamed pain in rats (Randall-Selitto method); type: in vivo, Wistar-Imamichi rats; conditions: Rattus norvegicus, oral, pain threshold 0.5, 1 and 2 hours after administration, read-out: Efficacy Rate (No. of animals in which drug was effective/No. of animals used in test) (converted)
Description: The compound was suspended in 0.5%tragacanth and administered orally at a volume of 5 ml/kg. The control group was administered with 0.5% tragacanth only as a vehicle.
Wistar-Imamichi rats (males, 5 week old, body weights: 80-100 g) were used in this test.
The test was conducted in accordance with the method of Winter and Flataker [J. Pharmacol. Exp. Ther. 150, 165-171, (1965)], which is a modification of the original method of Randall and Selitto [Arch. Int. Pharmacodyn. Ther. 111, 405-419, (1957)]. The rats were fasted for 16 hours prior to use. Inflammation was induced by subcutaneous injection of 0.1 ml of a suspension of 20% beer yeast (Sigma) into the right hind footpad of the animal. After 4.5 hours, increasing pressure was applied to the inflamed footpad at a constant speed using an Analgesy meter (Trade mark) (Ugo-Basile Co.).
First the average of pain threshold values at each time point (0.5, 1, and 2 hr) was calculated in a control group. If a pain threshold value exceeded 2 times the control average value at the same time point even once in the drug-treated groups, then the animal was considered to indicate efficacy. Efficacy rates of the drug were estimated by the evaluation method of Blake [J. Pharm. Pharm. 19, 367-373, (1967)].

IC50 [2]	Selectivity (COX-1/COX-2) [2]	IC50 [3]	SMILES	inhibition in vivo at 50 mg/kg [1]	UD50 (gastric mucosa)	responders at 12.5 mg/kg [4]
0.023 µM	165	3.8 µM	Cc1cc(-c2ccc(S(N)(=O)=O)cc2)n(-c2ccc3c(c2)OCO3)c1 [Example 109]	77%	–	–
0.023 µM	>4348	> 100 µM	Cc1cc(-c2ccc(S(N)(=O)=O)cc2)n(-c2ccc(F)cc2)c1Cl [Example 38, 5-Chloro-1-(4-fluorophenyl)-4-methyl-2-(4-sulfamoylphenyl)pyrrole]	–	–	–
0.011 µM	2273	25 µM	COc1ccc(-c2cc(C)cn2-c2ccc(S(C)(=O)=O)cc2)cc1 [Example 80, 2-(4-Methoxyphenyl)-4-methyl-1-(4-methylsulfonylphenyl)pyrrole]	–	>100 mg/kg	–
0.015 µM	867	13 µM	Cc1cc(-c2ccc(Cl)cc2)n(-c2ccc(S(N)(=O)=O)cc2)c1 [Example 65, 2-(4-Chlorophenyl)-4-methyl-1-(4-sulfamoylphenyl) pyrrole]	–	>100 mg/kg	100%
0.018 µM	>5556	> 100 µM	Cc1cc(-c2ccc(S(C)(=O)=O)cc2)n(-c2ccc(C)c(C)c2)c1 [Example 56, 4-Methyl-1-(3,4-dimethylphenyl)-2-(4-methylsulfonylphenyl)pyrrole]	–	–	–
0.025 µM	120	3 µM	COc1ccc(-c2c(C)ccn2-c2ccc(S(N)(=O)=O)cc2)cc1 [Example 73, 2-(4-Methoxyphenyl)-3-methyl-1-(4-sulfamoylphenyl)pyrrole]	72%	–	–
0.01 µM	370	3.7 µM	Cc1cc(-c2ccc(S(N)(=O)=O)cc2)n(-c2ccc(Cl)c(Cl)c2)c1 [Example 103]	56%	>100 mg/kg	–
0.023 µM	3696	85 µM	Cc1cc(-c2ccc(S(N)(=O)=O)cc2)n(-c2ccc(F)cc2)c1 [Example 20, 1-(4-Fluorophenyl)-4-methyl-2-(4-sulfamoylphenyl) pyrrole]	–	–	–
0.019 µM	332	6.3 µM	Cc1ccc(-n2cc(C)cc2-c2ccc(S(N)(=O)=O)cc2)cc1 [Example 58, 4-Methyl-1-(4-methylphenyl)-2-(4-sulfamoylphenyl) pyrrole]	–	–	–
< 0.01 µM	>600	6 µM	Cc1cc(-c2ccc(S(N)(=O)=O)cc2)n(-c2ccc(F)c(Cl)c2)c1 [Example 108]	58%	–	–
0.0097 µM	153	1.5 µM	COc1ccc(-n2cc(C)cc2-c2ccc(S(N)(=O)=O)cc2)cc1 [Example 62, 1-(4-Methoxyphenyl)-4-methyl-2-(4-sulfamoylphenyl)pyrrole]	55%	–	100%
